Experimental data taken from patent US5811425A, “Heterocyclic compounds as COX-2 inhibitors” (Abbott Laboratories, priority 1997, dated 1998).
Where a name gives a salt, the structure may show the parent alone.

Experiments:
[1] = target: T1, recombinant human PGHS-1 (COX-1) (Homo sapiens, UniProt P23219); assay: Recombinant human PGHS-1 enzyme assay (PGE2 production by EIA); assay type: biochemical; details: 100 uM compound; 60 min preincubation; 10 uM arachidonic acid; read-out: COX-1 (% inhib. @ 100 uM)
T1 construct: made in house; host or cells: baculovirus/Sf9 insect cells (microsomes)
T1 sequence (P23219 24-599): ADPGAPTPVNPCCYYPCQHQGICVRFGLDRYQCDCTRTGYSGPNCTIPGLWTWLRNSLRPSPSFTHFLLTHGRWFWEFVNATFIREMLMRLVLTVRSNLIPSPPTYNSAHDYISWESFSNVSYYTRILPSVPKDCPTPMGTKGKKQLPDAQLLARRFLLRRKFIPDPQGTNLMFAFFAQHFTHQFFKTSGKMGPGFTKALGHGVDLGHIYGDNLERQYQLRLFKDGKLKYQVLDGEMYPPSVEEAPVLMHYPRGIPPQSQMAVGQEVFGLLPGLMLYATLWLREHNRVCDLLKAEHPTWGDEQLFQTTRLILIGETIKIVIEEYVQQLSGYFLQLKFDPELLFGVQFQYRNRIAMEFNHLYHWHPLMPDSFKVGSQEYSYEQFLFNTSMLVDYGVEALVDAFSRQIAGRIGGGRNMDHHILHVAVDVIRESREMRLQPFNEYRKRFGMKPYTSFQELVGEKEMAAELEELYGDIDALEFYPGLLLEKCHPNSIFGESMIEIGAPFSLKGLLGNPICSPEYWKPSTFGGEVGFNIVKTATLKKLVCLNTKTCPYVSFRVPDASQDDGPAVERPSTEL
Experimental: Recombinant Human PGHS-l and -2 Enzyme Assays:
The reaction was allowed to run for 2.5 minutes at room temperature prior to quenching with HCl and neutralization with NaOH. PGE2 production in the presence and absence of the drug was determined by Enzyme ImmunoAssay ("EIA") analysis as described below.
(§1) EIA Determination of Prostaglandins
(§2) EIA reagents for prostaglandin determination were purchased from Perspective Diagnostics, Cambridge, Mass. PGE2 levels in lavage fluids were determined after the samples were dried under nitrogen and reconstituted with assay buffer. PGE2 levels in enzyme assays or cell culture media were measured against standards prepared in the same milieu. The immunoassays were conducted as recommended by the manufacturer. The EIA was conducted in 96 well microtiter plates (Nunc Roskilde, Denmark) and optical density measured using a microplate reader (Vmax, Molecular Devices Corp., Menlo Park, Calif.).

[2] = target: T2, recombinant human PGHS-2 (COX-2) (Homo sapiens, UniProt P35354); assay: Recombinant human PGHS-2 enzyme assay (PGE2 production by EIA); assay type: biochemical; details: 60 min preincubation, 10 uM arachidonic acid; for inhibition at 0.1 µM: 100 nM compound
T2 construct: made in house; host or cells: baculovirus/Sf9 insect cells (microsomes)
T2 sequence (P35354 18-604): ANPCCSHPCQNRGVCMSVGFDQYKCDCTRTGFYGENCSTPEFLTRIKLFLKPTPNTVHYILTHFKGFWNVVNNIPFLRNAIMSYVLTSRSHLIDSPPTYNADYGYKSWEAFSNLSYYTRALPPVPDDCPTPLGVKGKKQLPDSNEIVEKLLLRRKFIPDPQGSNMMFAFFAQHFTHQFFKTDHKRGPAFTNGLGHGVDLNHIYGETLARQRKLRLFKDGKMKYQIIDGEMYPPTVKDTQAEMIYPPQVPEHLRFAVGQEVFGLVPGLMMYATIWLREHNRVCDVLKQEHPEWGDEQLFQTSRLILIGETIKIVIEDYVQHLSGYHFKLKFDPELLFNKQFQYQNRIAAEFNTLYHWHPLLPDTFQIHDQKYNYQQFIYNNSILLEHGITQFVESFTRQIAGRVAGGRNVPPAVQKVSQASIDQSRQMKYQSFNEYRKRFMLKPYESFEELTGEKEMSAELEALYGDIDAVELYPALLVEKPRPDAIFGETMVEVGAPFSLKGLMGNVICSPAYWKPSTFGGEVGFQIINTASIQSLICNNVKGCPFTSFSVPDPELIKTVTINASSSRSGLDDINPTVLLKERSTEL
Experimental: Recombinant Human PGHS-l and -2 Enzyme Assays: A compound of the invention was dissolved in DMSO (3.3%v/v) and preincubated with microsomes from recombinant human PGHS-1 and-2 expressed in the baculovirus/Sf9 cell system (Gierse, J. […] The reaction was allowed to run for 2.5 minutes at room temperature prior to quenching with HCl and neutralization with NaOH. PGE2 production in the presence and absence of the drug was determined by Enzyme ImmunoAssay ("EIA") analysis as described below. EIA Determination of Prostaglandins EIA reagents for prostaglandin determination were purchased from Perspective Diagnostics, Cambridge, Mass. PGE2 levels in lavage fluids were determined after the samples were dried under nitrogen and reconstituted with assay buffer. PGE2 levels in enzyme assays or cell culture media were measured against standards prepared in the same milieu. The immunoassays were conducted as recommended by the manufacturer. The EIA was conducted in 96 well microtiter plates (Nunc Roskilde, Denmark) and optical density measured using a microplate reader (Vmax, Molecular Devices Corp., Menlo Park, Calif.).

[3] = tested on: carragennan induced pleurisy; assay: Carragennan Induced Pleurisy Test (CIP); assay type: in vivo, Sprague-Dawley rats; details: Rattus norvegicus; rats, oral 10 mg/kg, 30 min before carrageenan; prostaglandin in pleural lavage at 4 h
Experimental: as §1, §2
Carragennan Induced Pleurisy Test (CIP)
Four hours after carrageenan injection, the animals were euthanized and their pleural cavities lavaged with ice cold saline. […] Prostaglandin levels in the methanol lavage fluid were then determined by EIA.

SMILES	inhibition at 100 µM [1]	IC50 [2]	inhibition at 0.1 µM [2]	inhibition in vivo at 10 mg/kg [3]
COc1ccc2c(c1)c(Cc1nc(-c3csc4ccccc34)cs1)c(C)n2C(=O)c1ccc(Cl)cc1 [Example 7, 3-[4-(3-benzothienyl)thiazol-2-ylmethyl]-1-(4-Chlorobenzoyl)-5-methoxy-2-methylindole]	23%	1 nM		20%
COc1ccc2c(c1)c(Cc1csc(-c3cccnc3)n1)c(C)n2C(=O)c1ccc(Cl)cc1 [Example 12, 1-(4-Chlorobenzoyl)-5-methoxy-2-methyl-3-[2-(3-pyridyl)thiazol-4-ylmethyl]indole]	40%	20 nM		
COc1ccc2c(c1)c(Cc1nc(-c3ccc4ccccc4c3)cs1)c(C)n2C(=O)c1ccc(Cl)cc1 [Example 3, 1-(4-Chlorobenzoyl)-5-methoxy-2-methyl-3-[4-(2-naphthyl)thiazol-2-ylmethyl]indole]	21%	7 nM		
COc1ccc2c(c1)c(Cc1nc(-c3ccc(S(C)(=O)=O)cc3)cs1)c(C)n2C(=O)c1ccc(Cl)cc1 [Example 9, 1-(4-Chlorobenzoyl)-3-[4-(4-methanesulfonylphenyl)thiazol-2-ylmethyl]-5-methoxy-2-methylindole hydrobromide salt]	40%	60 nM		
COc1ccc2c(c1)c(Cc1nc(-c3cccc([N+](=O)[O-])c3)cs1)c(C)n2C(=O)c1ccc(Cl)cc1 [Example 10, 1-(4-Chlorobenzoyl)-5-methoxy-2-methyl-3-[4-(3-nitrophenyl)thiazol-2-ylmethyl]indole]	31%		85%	
COc1ccc2c(c1)c(Cc1nc(-c3ccc(O)c([N+](=O)[O-])c3)cs1)c(C)n2C(=O)c1ccc(Cl)cc1 [Example 11, 1-(4-Chlorobenzoyl)-3-[4-(4-hydroxy-3-nitrophenyl)thiazol-2-ylmethyl]-5-methoxy-2-methylindole]	23%		48%	30%
COc1ccc2c(c1)c(Cc1nc(-c3ccc(Br)cc3)cs1)c(C)n2C(=O)c1ccc(Cl)cc1 [Example 1, 3-[4-(4-bromophenyl)thiazol-2-ylmethyl]-1-(4-Chlorobenzoyl)-5-methoxy-2-methylindole]	32%	0.3 nM		43%
COc1ccc2c(c1)c(Cc1nc(-c3ccc(Cl)cc3)cs1)c(C)n2C(=O)c1ccc(Cl)cc1 [Example 5, 1-(4-Chlorobenzoyl)-3-[4-(4-Chlorophenyl)thiazol-2-ylmethyl]-5-methoxy-2-methylindole]	16%	14 nM		

Now from value to molecule, other results behind:

inhibition at 100 µM [1]	IC50 [2]	inhibition at 0.1 µM [2]	SMILES	inhibition in vivo at 10 mg/kg [3]
15%	7 nM		COc1ccc2c(c1)c(Cc1nc(-c3ccc(Cl)cc3)cs1)c(C)n2Cc1ccc(Br)cc1 [Example 14, 1-(4-bromobenzyl)-3-[4-(4-Chlorophenyl)thiazol-2-ylmethyl]-5-methoxy-2-methylindole]	36%
35%	8 nM		COc1ccc2c(c1)c(Cc1nc(-c3cccc(Br)c3)cs1)c(C)n2C(=O)c1ccc(Cl)cc1 [Example 4, 3-[4-(3-bromophenyl)thiazol-2-ylmethyl]-1-(4-Chlorobenzoyl)-5-methoxy-2-methylindole]	24%
21%	7 nM		COc1ccc2c(c1)c(Cc1nc(-c3ccc([N+](=O)[O-])cc3)cs1)c(C)n2Cc1ccc(Br)cc1 [Example 16, 1-(4-bromobenzyl)-5-methoxy-2-methyl-3-[4-(4-nitrophenyl)thiazol-2-ylmethyl]indole]	31%
26%	12 nM		COc1ccc2c(c1)c(Cc1nc(-c3ccc([N+](=O)[O-])cc3)cs1)c(C)n2C(=O)c1ccc(Cl)cc1 [Example 6, 1-(4-Chlorobenzoyl)-5-methoxy-2-methyl-3-[4-(4-nitrophenyl)thiazol-2-ylmethyl]indole]	
49%		77%	COc1ccc2c(c1)c(Cc1csc(-c3ccncc3)n1)c(C)n2C(=O)c1ccc(Cl)cc1 [Example 13, 1-(4-Chlorobenzoyl)-5-methoxy-2-methyl-3-[2-(4-pyridyl)thiazol-4-ylmethyl]indole]	14%
20%		82%	COc1ccc2c(c1)c(Cc1nc(-c3ccc(F)cc3F)cs1)c(C)n2C(=O)c1ccc(Cl)cc1 [Example 2, 1-(4-Chlorobenzoyl)-3-[4-(2.4-difluorophenyl)thiazol-2-ylmethyl]-5-methoxy-2-methylindole]	16%
36%	12 nM		COc1ccc2c(c1)c(Cc1nc(-c3ccc(F)cc3)cs1)c(C)n2C(=O)c1ccc(Cl)cc1 [Example 8, 1-(4-Chlorobenzoyl)-3-[4-(4-fluorophenyl)thiazol-2-ylmethyl]-5-methoxy-2-methylindole]	
15%	30 nM		COc1ccc2c(c1)c(Cc1nc(-c3ccc(Br)cc3)cs1)c(C)n2Cc1ccc(Br)cc1 [Example 15, 1-(4-bromobenzyl)-3-[4-(4-bromophenyl)thiazol-2-ylmethyl]-5-methoxy-2-methylindole]	
